This passage reports IC50 results from PubChem BioAssay AID623867 (Sanford-Burnham Center for Chemical Genomics, 2012).

For this assay, the system named is H9c2 cardiomyocytes, H2O2 injury protection, ATP luminescence, 2 h. Put plainly: H9c2 survival under peroxide injury – cell-based, hydrogen peroxide, ATP luminescence, SAR follow-up (AID 623867).

Each structure is given as a SMILES string. Active and inactive are the calls of the source.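 Rule for the calls: active = mean IC50 of at most 10 µM; inactive = the rest.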

Take `Cc1ccc(-c2[nH]c3ccccc3c2C(=O)C(=O)N(C)C)cc1`: the IC50 is > 79 µM (inactive).

For `COCCNC(=O)C(c1ccc(O)cc1)N(C(=O)c1snc(C(N)=O)c1N)c1ccccc1F` (stereo not given), the IC50 is > 79 µM (inactive).

On to `COc1ccc2c(=O)c(C(=O)N3CCN(S(=O)(=O)c4c(C)cc(C)cc4C)CC3)c[nH]c2c1`, for which the IC50 was > 79 µM (inactive).

As for `O=C1c2ccccc2N2C(=O)c3ccccc3[C@H]2N1c1ccccc1`, the IC50 was 29.4 µM (inactive).

In the case of `COc1ccc2c(c1OC)C(=O)N1c3ccccc3C(=O)N(c3ccccc3C)C21` (stereo not given), the IC50 is 58.5 µM (inactive).

`Cc1ccc(S(=O)(=O)N(Cc2cccnc2)Cc2cc3ccccc3[nH]c2=O)cc1`: the IC50 is > 79 µM (inactive).

With `Cc1ccc2cc(CN(Cc3cccnc3)S(=O)(=O)c3ccc(F)cc3)c(=O)[nH]c2c1`, the IC50 was > 79 µM (inactive).

Regarding `CCN(CC)C(=O)C(=O)c1c(-c2ccccc2)[nH]c2ccccc12`, the IC50 is > 79 µM (inactive).

Regarding `COCCn1c(SC(C(=O)Nc2cc(C)ccc2C)c2ccccc2)nc2ccccc2c1=O` (stereo not given), the IC50 is > 79 µM (inactive).

On to `COc1ccc2c(c1OC)C(=O)N1c3ccccc3C(=O)N(c3cccc(Br)c3)C21` (stereo not given), for which the IC50 was 10.7 µM (inactive).

On to `COc1ccc(-c2cc(C(=O)NCc3ccccc3)c3ccccc3n2)cc1OC`, for which the IC50 was > 79 µM (inactive).

Take `COc1cccc(CN(C)C(=O)c2cc(-c3ccc(OC)c(OC)c3)nc3ccccc23)c1`: the IC50 was 10.7 µM (inactive).

Take `COc1ccc(-n2cc(-c3ccccc3)c3c(N4CCCC4)ncnc32)cc1`: the IC50 was > 79 µM (inactive).

Regarding `CCCn1c(SC(C(=O)Nc2cccc(OC)c2)c2ccccc2)nc2ccccc2c1=O` (stereo not given), the IC50 is > 79 µM (inactive).

On to `CCCN(CC(=O)Nc1ccccc1OC)C(=O)c1cc(-c2cccs2)nn1-c1ccccc1`, for which the IC50 was > 79 µM (inactive).

`COc1ccc(-c2cc(C(=O)NCc3ccco3)c3ccccc3n2)cc1OC`: the IC50 came to 41 µM.

Consider `COc1cccc(NC(=O)CN(C)C(=O)c2cc(-c3cccs3)nn2-c2ccccc2)c1`, for which the IC50 is > 79 µM (inactive).

As to `Cc1ccc2cc(CN(C)S(=O)(=O)c3ccc(F)cc3)c(=O)[nH]c2c1`, the IC50 is > 79 µM (inactive).

For `O=C(C(=O)N1CCCCC1)c1c(-c2ccccc2)[nH]c2ccccc12`, the IC50 is > 79 µM (inactive).

On to `O=c1[nH]c2ccccc2cc1CN(Cc1ccco1)S(=O)(=O)c1ccc(F)cc1`, for which the IC50 was > 79 µM (inactive).

`O=C(C(=O)N1CCCC1)c1c(-c2ccccc2)[nH]c2ccccc12`: the IC50 was > 79 µM (inactive).

On to `COc1ccc(-c2cc(C(=O)N(C)C)c3ccccc3n2)cc1OC`, for which the IC50 was > 79 µM (inactive).

As to `CC(C)CCNC(=O)C(c1ccc(O)cc1)N(C(=O)c1snc(C(N)=O)c1N)c1ccccc1F` (stereo not given), the IC50 is > 79 µM (inactive).

As to `COc1ccc2c(c1OC)C(=O)N1c3ccccc3C(=O)N(c3ccc(F)cc3)C21` (stereo not given), the IC50 is 33.2 µM (inactive).

On to `Cc1ccc(C)c(S(=O)(=O)N2CCN(C(=O)c3cc4cc(C)ccc4nc3C)CC2)c1`, for which the IC50 is > 79 µM (inactive).

Turning to `COc1ccccc1N1C(=O)c2ccccc2N2C(=O)c3c(ccc(OC)c3OC)C12` (stereo not given), the IC50 was 30.4 µM (inactive).

`COc1ccc(-n2cc(-c3ccccc3)c3c(N4CCCCC4)ncnc32)cc1`: the IC50 was > 79 µM (inactive).

Consider `COc1ccc(N2C(=O)c3ccccc3N3C(=O)c4c(ccc(OC)c4OC)C23)cc1` (stereo not given), for which the IC50 is 23.4 µM (inactive).

`COc1cc(-c2cc(C(=O)Nc3cccc(C(C)=O)c3)c3ccccc3n2)cc(OC)c1OC`: the IC50 is 8.45 µM.

`COc1cccc(CN(C)C(=O)c2cc(-c3ccccc3)nc3ccc(C)cc23)c1OC`: the IC50 is > 79 µM (inactive).

Consider `COc1ccc(-c2cc(C(=O)N(C)Cc3ccc(OC)c(OC)c3OC)c3ccccc3n2)cc1OC`, for which the IC50 was 10.1 µM (inactive).

In the case of `CCN(CC)S(=O)(=O)c1cc(C(=O)N2CCN(Cc3cccc4cccnc34)CC2)ccc1C`, the IC50 is > 79 µM (inactive).

As for `Cc1ccccc1N(C(=O)c1snc(C(N)=O)c1N)C(C(=O)NCc1ccc(F)cc1)c1ccc(O)cc1` (stereo not given), the IC50 is > 79 µM (inactive).

Regarding `COc1ccc(-n2cc(-c3ccccc3)c3c(NCc4ccccc4)ncnc32)cc1`, the IC50 is > 79 µM (inactive).

As to `COc1ccc2cc(C(=O)N3CCN(S(=O)(=O)c4cc(C)ccc4C)CC3)c(C)nc2c1`, the IC50 was > 79 µM (inactive).
